This is an account of results in patent publication USRE47512E1, “Imidazole and imidazolium resins and methods for preparing curable imidazolium antimicrobial resins” (DENTSPLY SIRONA INC., priority 2011, dated 2019).

The data set can be described thus: Solubility of resins @ 37° C. The format is physicochemical.

As to “HEMA-based Monoimidazole-dimethacrylate Resin [Example 3a]”, under “Table I”, the “Solubility @ 37° C. in water” value is reported as “partially” and the “Solubility @ 37° C. in water/ethanol (50:50, w/w %)” value is listed as “soluble”.

“Isosorbide-based Bisimidazole-dimethacrylate Resin [Example 1]”: for the setting “Table I”, the “Solubility @ 37° C. in water” value is listed as “partially” and the “Solubility @ 37° C. in water/ethanol (50:50, w/w %)” value was “soluble”.

Consider “Isosorbide-based Bisimidazoliumbromide-dimethacrylate Resin [Example 5]”, for which the “Solubility @ 37° C. in EtOH” value (Table II, EtOH) is “soluble”. Besides, where the note is “Table II”, the “Solubility @ 37° C. in water/ethanol (50:50, w/w %)” value was “soluble”.

As for “TCDC-based Bisimidazole-dimethacrylate Resin [Example 2]”, for the setting “Table I”, the “Solubility @ 37° C. in water” value was “partially” and the “Solubility @ 37° C. in water/ethanol (50:50, w/w %)” value is reported as “soluble”.
